Reference: patent US12509439B2, “Anti-malarial agents” (UNIVERSITY OF KENTUCKY RESEARCH FOUNDATION, priority 2020, dated 2025)

Assays:
[1] = system: Plasmodium falciparum (3D7); experiment: In-vitro potency against P. falciparum (3D7 strain), SYBR Green growth inhibition; type: cell-based; conditions: P. falciparum 3D7, asexual intraerythrocytic stage, SYBR Green fluorescence
Description: Cultures of the widely-used malaria reference strain of chloroquine-sensitive Plasmodium falciparum (3D7) were maintained in a 1.25% suspension of human red blood cells cultured in RPMI 1640 medium (pH 7.3) supplemented with 0.5% Albumax II (Gibco Life Technologies, San Diego, CA), 12 mM sodium bicarbonate, 0.2 mM hypoxanthine, and 20 mg/L gentamicin at 37° C., in an atmosphere of 1% O2, 3% CO2 with a balance of nitrogen (Human malaria parasites in continuous culture. Trager W et al., 1976, Science, 193: 673-675). Growth inhibition was quantified using a fluorescence assay utilising the binding of SYBR Green (Novel, rapid, and inexpensive cell-based quantification of antimalarial drug efficacy. Bennett T. N. et al., 2004, Antimicrob. Agents Chemother., 48: 1807-1810) to double stranded DNA, which emits a fluorescent signal at 528 nm after excitation at 485 nm. Mefloquine was used as a drug control to monitor the quality of the assay (Z′=0.6 to 0.8, where Z′ is a measure of the discrimination between the positive and negative controls on a screen plate). Hits were confirmed by full-potency curves with dose-response curves determined from a minimum of 3 independent experiments. Compound bioactivity was expressed as EC50, the effective concentration of compound causing 50% parasite death. All data were processed using IDBS ActivityBase. Raw data was converted into percent inhibition through linear regression by setting the high inhibition control as 100% and the no inhibition control as 0%. Quality control criteria for passing plates were as follows: z′>0.5, S:B>3, % CV(no inhibition control)<15. The formula used to calculate z′ is
Curve fitting was carried out using the following 4 parametric equation:
where A=% inhibition at bottom, B=% inhibition at top, C=EC50, D=slope, x=inhibitor concentration and y=% inhibition. If curve definition was poor, B was fixed to 100.

[2] = Microsomal intrinsic clearance, mouse liver microsomes; type: in vitro ADME; conditions: mouse liver microsomes (pooled), pH 7.4, 45 min, NADPH
Description: (§1) The compounds of the invention (1 μM) were incubated in suspension with human (rat or mouse) liver microsomes pooled from multiple donors (>10) and samples taken at 5 time points over the course of a 45 min experiment and analysed by LC MS/MS. Microsomes (final protein concentration 0.5 mg/mL), 0.1 M phosphate buffer pH 7.4 and test compound (final substrate concentration 1 μM; final DMSO concentration 0.25%) were pre-incubated at 37° C. prior to the addition of NADPH (final concentration 1 mM) to initiate the reaction. A minus cofactor control incubation was included for each compound tested where 0.1 M phosphate buffer pH 7.4 is added instead of NADPH (minus NADPH). All incubations were performed in duplicate for each test compound and the results averaged. Each compound is incubated for 0, 5, 15, 30 and 45 min. The control (minus NADPH) was incubated for 45 min only. The reactions were stopped by transferring incubate into acetonitrile at the appropriate time points, in a 1:3 ratio.
(§2) The termination plates were centrifuged at 3,000 rpm for 20 min at 4° C. to precipitate the protein. Following protein precipitation, the sample supernatants were combined in cassettes of up to 4 compounds, internal standard added and samples analysed by LC-MS/MS. From a plot of ln peak area ratio (compound peak area/internal standard peak area) against time, the gradient of the line is determined. Subsequently, half-life (t½) and intrinsic clearance (CLint) are calculated using the equations below: Elimination rate constant (k)=(−gradient) Half-life (t1/2)(min)=0.693/k Intrinsic clearance (i.e. CLint)(μL/min/mg protein)=V×0.693/t1/2 where V=Incubation volume (μL)/Microsomal protein (mg)
(§3) Verapamil and dextromethorphan were included in the assay as controls and if the values for these compounds were not within the specified limits the results were rejected and the experiment repeated.

[3] = Microsomal intrinsic clearance, rat liver microsomes; type: in vitro ADME; conditions: rat liver microsomes (pooled), pH 7.4, 45 min, NADPH
Description: as §1, §2, §3

[4] = Microsomal intrinsic clearance, human liver microsomes; type: in vitro ADME; conditions: human liver microsomes (pooled), pH 7.4, 45 min, NADPH
Description: as §1, §2, §3

[5] = Hepatocyte intrinsic clearance, cryopreserved human hepatocytes; type: in vitro ADME; conditions: cryopreserved human hepatocytes in suspension (pooled), 60 min
Description: The compounds of the invention (3 μM) were incubated in suspension with cryopreserved human (rat or mouse) hepatocytes pooled from multiple donors (>10) and samples taken at 6 time points over the course of a 60 min experiment and analysed by LC MS/MS. Williams E media supplemented with 2 mM L-glutamine and 25 mM HEPES and test compound (final substrate concentration 3 μM; final DMSO concentration 0.25%) were pre-incubated at 37° C. prior to the addition of a suspension of cryopreserved hepatocytes (final cell density 0.5×10^6 viable cells/mL in Williams E media supplemented with 2 mM L glutamine and 25 mM HEPES) to initiate the reaction. The final incubation volume is 500 μL. The reactions are stopped by transferring aliquots of incubate into acetonitrile at the appropriate time points, in a 1:2 ratio. The termination plates are centrifuged at 3,000 rpm for 20 min at 4° C. to precipitate the protein. Following protein precipitation, the sample supernatants were combined in cassettes of up to 4 compounds, internal standard was added and analysed by LC MS/MS. From a plot of ln peak area ratio (compound peak area/internal standard peak area) against time, the gradient of the line was determined. Subsequently, half-life (t½) and intrinsic clearance (CLint) were calculated using the equations below: Elimination rate constant (k)=(−gradient) Half-life (t½) (min)=0.693/k Intrinsic clearance (i.e. CLint) (μL/min/million cells)=V×0.693/t1/2
where V=Incubation volume (μL)/Number of cells
Verapamil and umbelliferone were included in the assay as controls and if the values for these compounds are not within the specified limits the results were rejected and the experiment repeated.

[6] = PK parameters in mouse (IV and PO); type: in vivo; conditions: for PK parameters (mouse): F: 10 mg/kg IV and 10 mg/kg PO; for clearance / half-life: male, Swiss Albino, plasma, IV arm, 10 mg/kg; for clearance: read-out: PK parameters (mouse): Cl; for half-life: read-out: PK parameters (mouse): t1/2
Description: Swiss Albino male mice or Sprague Dawley rats (TCGLS, India) were kept under a 12/12 h light/dark cycle, 22±2° C. temp, 50±20% RH with free access to food and water ad libitum. Mice were selected randomly/based on body weight/age and fasted for 4 h before dosing and until 2 h after dosing. Three mice were used per route of administration. […]
(§4) Blood samples were taken (mice 50 μL, rat 100 μL) at regular timepoints from the saphenous vein (conscious restrained animals) and collected into heparinized capillary tubes and transferred into 0.5 mL microcentrifuge tubes. Samples were processed by centrifugation at 1640 g for 10 min at +4° C. within 30 min of collection and stored at −20° C. until bioanalysis. All samples were mixed with ice-cold acetonitrile containing an internal standard, centrifuged at 4000 rpm for 15 min at 15° C. Supernatant was then half diluted in water and analysed by LCMS/MS analysis to determine analyte peak area/IS peak area (the ratio). Concentration (plasma) of the compounds of the invention was determined by reference to a calibration curve. Pharmacokinetic parameters (Cmax, Tmax, AUC, t1/2, CL, Vd, BA) were calculated using WinNonLin, using non-compartmental analysis (Phoenix, Version 6.3). The pharmacokinetic parameters for compounds shown in Table 2 support that compounds of the invention have pharmacokinetic properties associated with treatment of malaria via the oral route and that compounds have substantially longer half-lives than the reference compound.

[7] = PK parameters in rat (IV and PO); type: in vivo; conditions: for PK parameters (rat): F: 1 mg/kg IV and 3 mg/kg PO; for clearance / half-life: Sprague Dawley, plasma, IV arm, 1 mg/kg; for clearance: read-out: PK parameters (rat): Cl; for half-life: read-out: PK parameters (rat): t1/2
Description: Swiss Albino male mice or Sprague Dawley rats (TCGLS, India) were kept under a 12/12 h light/dark cycle, 22±2° C. temp, 50±20% RH with free access to food and water ad libitum. Mice were selected randomly/based on body weight/age and fasted for 4 h before dosing and until 2 h after dosing. Three mice were used per route of administration. For IV determination (1 mg/kg, dose volume 5 ml/kg) the dose was administered by injection into the lateral tail vein (rats are anaesthetized using 3% v/v isoflurane: oxygen mixture). For PO determination (3 mg/kg, dose volume 10 ml/kg) the dose was administered by oral gavage in conscious animals.
as §4

EC50 [1] [nM]	microsomal CLint at 1 μM [2] [µL/min/mg]	microsomal CLint at 1 μM [3] [µL/min/mg]	microsomal CLint at 1 μM [4] [µL/min/mg]	hepatocyte CLint at 3 μM [5] [µL/min/1e6 cells]	PK parameters (mouse): F [6]	clearance [6] [mL/min/kg]	half-life [6] [h]	PK parameters (rat): F [7]	clearance [7] [mL/min/kg]	half-life [7] [h]	Compound
53	< 10	< 10	< 3	< 3	F = 56%	2.67	41	F = 33%	0.5	85	N#Cc1cc(NC(=O)[C@H]2c3ccccc3C(=O)N(CC(F)(F)F)[C@@H]2c2ccc(OCC(F)(F)F)nc2)ccc1F [(4a), (3S,4S)—N-(3-cyano-4-fluorophenyl)-1-oxo-3-(6-(2,2,2-trifluoroethoxy)pyridin-3-yl)-2-(2,2,2-trifluoroethyl)-1,2,3,4-tetrahydroisoquinoline-4-carboxamide]
68	< 10		< 3	< 10	F = 108%	2.67	18	F = 108%	1.5	38	N#Cc1cc(NC(=O)[C@H]2c3ccccc3C(=O)N(CC(F)(F)F)[C@@H]2c2ccc(OC(F)F)nc2)ccc1F [(7a), (3S,4S)—N-(3-cyano-4-fluorophenyl)-3-(6-(difluoromethoxy)pyridin-3-yl)-1-oxo-2-(2,2,2-trifluoroethyl)-1,2,3,4-tetrahydroisoquinoline-4-carboxamide]
59	< 10		< 3	4	F = 37%	3.33	56				N#Cc1cc(NC(=O)[C@H]2c3ccccc3C(=O)N(CC(F)(F)F)[C@@H]2c2ccc(C(F)F)nc2)ccc1F [(8a), (3S,4S)—N-(3-cyano-4-fluorophenyl)-3-(6-(difluoromethyl)pyridin-3-yl)-1-oxo-2-(2,2,2-trifluoroethyl)-1,2,3,4-tetrahydroisoquinoline-4-carboxamide]
80			13								CC(C)Oc1ccc(C2C(C(=O)Nc3ccc(F)c(C#N)c3)c3ccccc3C(=O)N2CC(F)(F)F)cn1 (racemic) [(2), (+, −)-N-(3-cyano-4-fluorophenyl)-3-(6-isopropoxypyridin-3-yl)-1-oxo-2-(2,2,2-trifluoroethyl)-1,2,3,4-tetrahydroisoquinoline-4-carboxamide]
68	< 10		< 3	< 3							N#Cc1ccc([C@@H]2[C@@H](C(=O)Nc3ccc(F)c(C#N)c3)c3ccccc3C(=O)N2CC(F)(F)F)cn1 [(6a), (3S,4S)—N-(3-cyano-4-fluorophenyl)-3-(6-cyanopyridin-3-yl)-1-oxo-2-(2,2,2-trifluoroethyl)-1,2,3,4-tetrahydroisoquinoline-4-carboxamide]
70	< 10	< 10	6	< 10	F = 95%	1.67	11	F = 95%	0.667	11	N#Cc1cc(NC(=O)[C@H]2c3ccccc3C(=O)N(CC(F)(F)F)[C@@H]2c2ccc(C(F)(F)F)nc2)ccc1F [(3a), (3S,4S)—N-(3-cyano-4-fluorophenyl)-1-oxo-2-(2,2,2-trifluoroethyl)-3-(6-(trifluoromethyl)pyridin-3-yl)-1,2,3,4-tetrahydroisoquinoline-4-carboxamide]
40											CC(=O)Nc1ccc([C@@H]2[C@@H](C(=O)Nc3ccc(F)c(C#N)c3)c3ccccc3C(=O)N2CC(F)(F)F)cn1 [(5a), (3S,4S)-3-(6-acetamidopyridin-3-yl)-N-(3-cyano-4-fluorophenyl)-1-oxo-2-(2,2,2-trifluoroethyl)-1,2,3,4-tetrahydroisoquinoline-4-carboxamide]
